Series [1] relates to E2F1, p53, p53 phosphorylated at serine 15. The series can be described thus: Western blot of E2F1, p53 and phospho-p53 in neonatal fibroblasts. In kind it is cell-based, human. The method, then: Cells were plated at a density of 180,000 cells/ml in RPMI 1640 medium supplemented with 3% FBS. Cells were treated with 40 μM of either of the oligonucleotides for 72 hours. Cells were then collected, washed and fixed for 30 minutes in 4% paraformaldehyde and then permeabilized with 0.1% Triton X-100 for 2 minutes. The TUNEL assay was carried out with components and instructions of the In Situ Cell Death Detection Kit using fluorescein-labeled dUTP from Boehringer Mannheim. TUNEL-positive cells were detected by FACS analysis and confocal microscopy. Cellular Uptake of Oligonucleotides For confocal analysis, Jurkat cells were plated on Permanox chamber slides (Lab-Tek, Naperville, Ill.) and treated for 4 hours with fluorescein phosphoramidite (FAM)-labeled oligonucleotides (Research Genetics, Inc., Huntsville, Ala.). Adherent cells were fixed in 4% paraformaldehyde in PBS, stained with propidium iodide (PI) to identify nuclei, mounted with Slowfade reagent (Molecular Probes, Eugene, Oreg.), covered with a coverslip and stored at 4° C. in the dark. Uptake of the oligonucleotides was assessed in 5–10 μm sections with a Carl Zeiss LSM 510 confocal laser microscope. Computer images assign green to the FAM-oligonucleotides, red to PI, and yellow to co-localization of the signals. FACS analysis was performed on Jurkat cells identically treated with the FAM-oligonucleotides for 4 hours, then fixed in 0.5 ml of 4% paraformaldehyde overnight at 4° C. Fluorescence was measured on the FL-1 channel. Western Blot Analysis and Antibodies Western blot analysis was performed as previously described [Eller, M. S., et al., (1996), Proc Natl Acad Sci USA 93, 1087–1092]. Antibody Ab-6 (DO-1 clone, Oncogene Research Products, Cambridge, Mass.) detected p53; antibody KH95 (Santa Cruz Biotechnology, Inc., Santa Cruz, Calif.) detected E2F1; antibody Ab-4 (Oncogene Research products) detected p73. Phospho-p53 (serine 15) was detected using the #9284 polyclonal antibody and phospho-p95/Nbs1 (serine 343) was detected by a phospho-p95/Nbs1-specific polyclonal antibody, both antibodies from Cell Signaling Technology (Beverly, Mass.). p95/Nbs1 antibody (#NB-100-143, Novus Biologicals, Littleton, Colo.) and an actin antibody (I-19, Santa Cruz Biotechnology, Santa Cruz, Calif.) were also used. Modification of p95/Nbs1 Jurkat and SCC12F cells were cultured and treated with the oligonucleotides as described above. After the indicated times, total protein was collected and analyzed by 8% PAGE and western blot using a polyclonal antibody to p95/Nbs1 (#NB-100-143, Novus Biologicals, Littleton, Colo.). Immunoprecipitation and treatment with a serine/threonine phosphatase was performed as described by Lim et al. [Lim, D. S. et al., Nature 404:613–617, 2000]. Transient Transfection and Expression of TRF2^DN The Ad TRF2^DN expression vector was the kind gift of Dr. Titia deLange (Rockefeller University). The control vector, pCMV LUC was the gift of Dr. M. Hedayati, Johns Hopkins University. Cells were plated at a density of 3.5×10^3 cells/cm^2. One day later, the cultures were transfected with 1 μg plasmid DNA/35 mm culture dish, using the Fugene 6 Transfection Reagent (Roche Molecular Biochemicals, Indianapolis, Ind.), following the protocol supplied by the manufacturer. Cells were collected at the indicated times after transfection and p95/Nbs1 was examined by western blot as described. Telomere Length Normal human fibroblasts were cultured for 5 days in the presence of either diluent or 40 μM 11mer-1, -2 or -3. The cells were then collected and the genomic DNA isolated using the DNeasy Tissue Kit (Qiagen, Valencia, Calif.). Telomere length was determined essentially as described by van Steensel and de Lange (van Steensel, B. and T. de Lange. 1997, Nature 385: 740–743) using the Telo TAGGG Telomere Length Assay from Roche Molecular Biochemicals (Indianapolis, Ind.) and the protocol supplied by the manufacturer. […]
(Immunoblotting shows a protein as a band on a membrane.)

For series [2], the system named is UV-damaged CAT reporter plasmid in human keratinocytes. As to the kind of experiment: Repair of UV-damaged CAT reporter plasmid in keratinocytes. In kind it is cell-based. Conditions: 100 μM for five days before transfection; plasmid 100 mJ/cm^2 UVB. An excerpt:
Expression of a UV-damaged reporter plasmid containing the bacterial chloramphenicol acetyltransferase (CAT) gene under the control of SV40 promoter and enhancer sequences was previously shown to detect decreased DNA repair capacity in human lymphocytes associated with aging and early-onset skin cancers. This reporter plasmid was used to measure the DNA repair capacity of normal neonatal human skin-derived fibroblasts and keratinocytes.
Keratinocytes from newborns were established as described (Stanulis-Praeger, B. M. and Gilchrest, B. A., J. Cell. Physiol. 139:116–124 (1989)) using a modification of the method of Rheinwald and Green (Gilchrest, B. A. et al., J. Invest. Dermatol. 101:666–672 (1993)). First-passage keratinocytes were maintained in a non-differentiating low Ca^2+ medium (K-Stim, Collaborative Biomedical Products, Bedford, Mass.). […] CAT enzyme activity was determined using the liquid scintillation counting protocol and components of the assay system kit. […] Protein concentration in the cell extracts was determined by the method of Bradford (Anal. Biochem. 72:248 […]). CAT activity was expressed as c.p.m./100 μg protein and is represented as percent activity of cells transfected with sham-irradiated, non-damaged, plasmid.

Oligonucleotides are written 5' to 3', each unit as a sugar letter and its base; * is a phosphorothioate linkage, no mark a phosphodiester; rarer units and linkages stand in square brackets, end groups in braces. Plain capitals give the bases only. d = 2'-deoxy (DNA); {P} = phosphate

Consider “pGTTAGGGTTAG (DNA {P}-dGdTdTdAdGdGdGdTdTdAdG) [SEQ ID NO: 5]”, for which, in series [1], the “E2F1 increase peaked after” value was 12 to 24 h, the “increase in E2F1 seen as early as” value was found to be 4 h and the “phosphorylated p53 (serine 15) first detected at” value is 4 h. For the same substance, in series [1] (40 μM, 24 hours, densitometry), the “increase in E2F1 compared to diluent or 11mer-2 treated controls” value was 170–250%. The “increase in p53 compared to diluent or 11mer-2 treated controls” value in series [1] (40 μM, 48 hours) was 60–300%. Moreover, the “increase in p53 compared to diluent or 11mer-2 treated controls” value in series [1] (40 μM, 72 hours) is given as 240–380%. In series [1] (sustained through at least 48 hours), the “p53 protein phosphorylated at serine 15” value is “striking and selective increase”.
Regarding thymidine dinucleotide [pTpT], the “CAT activity relative to sham-irradiated transfected controls” value in series [2] is recorded as “more than 50%”.

Values taken from US7033829B2, “Method to inhibit cell growth using oligonucleotides” (Trustees of Boston University, priority 2000, dated 2006).
